This is an account of results in patent publication US11066369B2, “N-(pyridin-2-yl)pyridine-sulfonamide derivatives and their use in the treatment of disease” (Novartis AG, priority 2016, dated 2021).

Structures can show the parent of a compound that is named as a salt. Where two headings read alike, the source gives them in different places.

This assay deals with T1, horseradish peroxidase (HRP) tagged delF508-CFTR (Homo sapiens, UniProt P13569, DEL508-508).
T1 construct: expressed in transfected cells
T1 sequence (P13569 with tags, fused parts or gaps DEL508-508): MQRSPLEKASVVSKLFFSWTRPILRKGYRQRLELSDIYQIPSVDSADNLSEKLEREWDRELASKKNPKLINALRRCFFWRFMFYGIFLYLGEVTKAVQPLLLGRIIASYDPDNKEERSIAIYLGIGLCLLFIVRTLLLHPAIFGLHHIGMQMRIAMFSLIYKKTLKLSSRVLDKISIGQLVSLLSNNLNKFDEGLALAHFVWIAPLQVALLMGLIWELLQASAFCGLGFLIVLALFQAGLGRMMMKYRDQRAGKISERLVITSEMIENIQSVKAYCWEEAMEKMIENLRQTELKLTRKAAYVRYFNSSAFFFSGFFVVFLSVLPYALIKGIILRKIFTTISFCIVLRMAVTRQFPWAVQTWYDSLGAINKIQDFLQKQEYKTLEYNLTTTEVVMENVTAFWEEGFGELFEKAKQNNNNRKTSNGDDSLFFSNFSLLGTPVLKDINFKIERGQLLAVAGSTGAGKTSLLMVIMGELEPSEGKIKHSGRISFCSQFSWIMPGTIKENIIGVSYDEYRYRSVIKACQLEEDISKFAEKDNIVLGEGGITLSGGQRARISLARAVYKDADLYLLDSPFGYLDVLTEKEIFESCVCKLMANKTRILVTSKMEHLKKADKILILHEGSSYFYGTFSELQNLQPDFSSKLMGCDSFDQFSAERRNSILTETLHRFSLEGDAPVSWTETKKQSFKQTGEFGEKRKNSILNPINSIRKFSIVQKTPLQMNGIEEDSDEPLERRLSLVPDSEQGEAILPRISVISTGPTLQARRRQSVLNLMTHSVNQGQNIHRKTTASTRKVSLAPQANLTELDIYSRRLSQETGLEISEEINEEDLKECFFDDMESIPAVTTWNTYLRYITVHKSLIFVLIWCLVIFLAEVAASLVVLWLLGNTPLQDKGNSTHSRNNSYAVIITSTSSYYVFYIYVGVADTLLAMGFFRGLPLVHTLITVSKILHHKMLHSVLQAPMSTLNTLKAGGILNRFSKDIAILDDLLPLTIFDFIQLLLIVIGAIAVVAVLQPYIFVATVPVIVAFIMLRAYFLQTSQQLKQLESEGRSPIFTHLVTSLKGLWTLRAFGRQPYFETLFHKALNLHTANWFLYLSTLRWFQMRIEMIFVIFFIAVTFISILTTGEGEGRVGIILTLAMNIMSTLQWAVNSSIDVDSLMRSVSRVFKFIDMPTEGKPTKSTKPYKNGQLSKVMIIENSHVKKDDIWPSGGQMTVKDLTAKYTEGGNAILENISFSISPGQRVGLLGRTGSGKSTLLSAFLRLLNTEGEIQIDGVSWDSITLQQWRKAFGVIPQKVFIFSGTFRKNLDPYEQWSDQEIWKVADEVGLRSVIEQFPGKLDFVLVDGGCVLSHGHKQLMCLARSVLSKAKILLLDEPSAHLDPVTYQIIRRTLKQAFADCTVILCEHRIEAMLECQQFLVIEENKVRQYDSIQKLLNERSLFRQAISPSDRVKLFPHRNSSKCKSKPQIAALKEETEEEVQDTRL
Put plainly: Measurement of delF508-CFTR-HRP surface expression in CFBE41o- cells.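 For DelF508-CFTR-HRP Amax %: percent efficacy relative to reference corrector lumacaftor.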 Format: cell-based. Conditions: CFBE41o- cells; for EC50: read-out: DelF508-CFTR-HRP EC50; for Emax: read-out: DelF508-CFTR-HRP Amax %. An excerpt:
Measurement of delF508-CFTR-HRP Surface Expression in CFBE41o-Cells
This assay quantifies the cell surface expressions of the mutant CFTR channel using an extracellular HRP tag.
A cellular assay was developed to measure surface expression of horseradish peroxidase (HRP) tagged delF508-CFTR in the human bronchial epithelial immortalized CFBE41o-cell line (Phuan, P. W., et al, (2014) Molecular Pharmacology 86:42-51). Specifically, the HRP sequence was inserted into the fourth extracellular loop of delF508-CFTR and stably expressed in CFBE41o-cells. Cells were seeded in 384 well plate at a density of 5000 cells/well and incubated at 37° C. for 12 to 24 hours in medium (Gibco MEM #11095, 10% FBS, 10 mM HEPES, […], 200 μg/mL G418, 3 μg/mL Puromycin). The delF508-CFTR-HRP expression was induced with 500 ng/mL doxycycline (Sigma D-9891, dissolved in H2O and sterile filtered) in medium and the cells were incubated at 37° C. for 48h. Old medium was removed and fresh medium was added containing 500 ng/mL doxycycline and unknown test compound at required test concentration in DMSO, not exceeding 0.5% final DMSO concentration. The highest concentration tested was 10 μM with a 10-point concentration response curve using a 3-fold dilution. After addition of compounds, the cells were incubated for 24h at 37° C. On the final day, cells were washed four times in PBS containing 1 mM MgCl2 and 0.1 mM CaCl2. HRP-Substrate (SuperSignal ELISA Pico, Fisher #37069) 20 μl/well was added and the luminescence signal was determined (Viewlux, Perkin Elmer). Light was emitted upon addition of exogenous HRP-Substrate only when delF508-CFTR-HRP reached the cell surface and the HRP tag was accessible to the HRP-Substrate (note: HRP-Substrate cannot cross the lipid bilayer to reach delF508-CFTR-HRP misfolded within the cell).
The median activity for the lowest concentration of the compounds on each assay plate was calculated and this value was used to normalize the signal for each well on the respective plate. Three replicates at each concentrations for every compound were run to determine one EC50. The median value was determined and used to calculate compound activities as described below. Effective half maximal values (EC50) were calculated for each compound by performing logistic regression on measured dose-response data points using the equation:
[formula] where “Y” is the observed activity, “Bottom” is the lowest observed value, “Top” is the highest observed value, and the “Hill coefficient” gives the largest absolute value of the slope. The curve fitting is carried out by a curve fitting program implemented at GNF using Matlab (Mathworks).
The dose response curves also were used to calculate Fold Change (FC) using the equation: […]
Compound efficacy relative to the reference compound 3-(6-(1-(2,2-difluorobenzo[d][1,3]dioxol-5-yl)cyclopropane-1-carboxamido)-3-methylpyridin-2-yl)benzoic acid was determined using the following formula: […]

Setting [1] is: mean of at least two replicates.
[2] abbreviates: delF508-CFTR-HRP surface expression.

In the case of `Cc1ccccc1-c1nc(NS(=O)(=O)c2cccc(NC3CCC(C(=O)O)C3)n2)ccc1C(F)(F)F` (mixture of isomers) [Example 459, 3-((6-(N-(6-(o-tolyl)-5-(trifluoromethyl)pyridin-2-yl)sulfamoyl)pyridin-2-yl)amino)cyclopentanecarboxylic Acid], the EC50 under setting [1] came out at 2360 nM. For the same compound, the Emax (surface expression Amax) is 332%.
As to `Cc1ccccc1-c1nc(NS(=O)(=O)c2cccc(NC3CCCC(C(=O)O)C3)n2)ccc1C(F)(F)F` (mixture of isomers) [Example 460, 3-((6-(N-(6-(o-tolyl)-5-(trifluoromethyl)pyridin-2-yl)sulfamoyl)pyridin-2-yl)amino)cyclohexanecarboxylic acid], the EC50 under setting [1] came to 1810 nM. Where the note is “surface expression Amax”, the Emax stood at 362%.
As to `CO[C@H]1CNCC[C@H]1Nc1cccc(S(=O)(=O)Nc2ccc(C(F)(F)F)c(-c3ccccc3C)n2)n1` (racemic) [Example 115, 6-(((3S,4R)-3-methoxypiperidin-4-yl)amino)-N-(6-(o-tolyl)-5-(trifluoromethyl)pyridin-2-yl)pyridine-2-sulfonamide Hydrochloride], under setting [2], the Emax was determined as 192% and the EC50 was 3810 nM.
Turning to `Cc1ccccc1-c1nc(NS(=O)(=O)c2cccc(OC3COCC3=O)n2)ccc1C(F)(F)F` (racemic) [Example 292, 6-((4-oxotetrahydrofuran-3-yl)oxy)-N-(6-(o-tolyl)-5-(trifluoromethyl)pyridin-2-yl)pyridine-2-sulfonamide], under setting [2], the Emax is 225% and the EC50 stood at 2970 nM.
Consider `Cc1ccccc1-c1nc(NS(=O)(=O)c2cccc(N[C@@H]3C[C@@]4(C(=O)O)CC[C@@H]3O4)n2)ccc1C(F)(F)F` (racemic) [Example 395, rac-(1RS,3RS,4SR)-3-((6-(N-(6-(o-tolyl)-5-(trifluoromethyl)pyridin-2-yl)sulfamoyl)pyridin-2-yl)amino)-7-oxabicyclo[2.2.1]heptane-1-carboxylic Acid], for which, under setting [1], the EC50 came to 3650 nM. Further, under “surface expression Amax”, the Emax came out at 64.3%.
`CC(C)c1ccccc1-c1nc(NS(=O)(=O)c2cccc(N[C@@H]3C[C@@]4(C(=O)O)CC[C@@H]3O4)n2)ccc1C(F)(F)F` (racemic) [Example 403, rac-(1RS,3RS,4SR)-3-((6-(N-(6-(2-isopropylphenyl)-5-(trifluoromethyl)pyridin-2-yl)sulfamoyl)pyridin-2-yl)amino)-7-oxabicyclo[2.2.1]heptane-1-carboxylic Acid]: the EC50 under setting [1] was found to be 2360 nM. In addition, the Emax (surface expression Amax) is 155%.
Take `CCC[C@@H]1CCN(c2cccc(S(=O)(=O)Nc3ccc(C(F)(F)F)c(-c4ccccc4C)n3)n2)[C@H]2C[C@H](C(=O)O)[C@@H]12` (racemic) [Example 404, rac-(1SR,5RS,6RS,7SR)-5-propyl-2-(6-(N-(6-(o-tolyl)-5-(trifluoromethyl)pyridin-2-yl)sulfamoyl)pyridin-2-yl)-2-azabicyclo[4.2.0]octane-7-carboxylic Acid]: the EC50 under setting [1] was found to be 786 nM.
As to `CCC[C@@H]1CCN(c2cccc(S(=O)(=O)Nc3ccc(Cl)c(-c4cccnc4C(C)C)n3)n2)[C@H]2C[C@H](C(=O)O)[C@@H]12` (racemic) [Example 434, rac-(1SR,5RS,6RS,7SR)-2-(6-(N-(3-chloro-2′-isopropyl-[2,3′-bipyridin]-6-yl)sulfamoyl)pyridin-2-yl)-5-propyl-2-azabicyclo[4.2.0]octane-7-carboxylic Acid], the EC50 under setting [1] was 2230 nM. The Emax (surface expression Amax) worked out at 734%.
For `O=C(O)[C@]12CC[C@H](O1)[C@H](Nc1cccc(S(=O)(=O)Nc3ccc(C(F)(F)F)c(-c4ccccc4C4CC4)n3)n1)C2` (racemic) [Example 438, rac-(1RS,3RS,4SR)-3-((6-(N-(6-(2-cyclopropylphenyl)-5-(trifluoromethyl)pyridin-2-yl)sulfamoyl)pyridin-2-yl)amino)-7-oxabicyclo[2.2.1]heptane-1-carboxylic Acid], in that order: 1980 nM and 53.4%.
With `CC(C)c1ccccc1-c1nc(NS(=O)(=O)c2cccc(N3CCC[C@@H]4[C@@H](C(=O)O)C[C@@H]43)n2)ccc1C(F)(F)F` (racemic) [Example 442, rac-(1SR,6RS,7SR)-2-(6-(N-(6-(2-isopropylphenyl)-5-(trifluoromethyl)pyridin-2-yl)sulfamoyl)pyridin-2-yl)-2-azabicyclo[4.2.0]octane-7-carboxylic Acid], the EC50 under setting [1] amounted to 1240 nM.
As to `Cc1ccccc1-c1nc(NS(=O)(=O)c2cccc(N3CCC[C@@H]4[C@@H](C(=O)O)C[C@@H]43)n2)ccc1C(F)(F)F` (racemic) [Example 443, rac-(1SR,6RS,7SR)-2-(6-(N-(6-(o-tolyl)-5-(trifluoromethyl)pyridin-2-yl)sulfamoyl)pyridin-2-yl)-2-azabicyclo[4.2.0]octane-7-carboxylic Acid], under setting [1], the EC50 was determined as 1750 nM.
Regarding `Cc1ccccc1-c1nc(NS(=O)(=O)c2cccc(N[C@@H]3CCNC[C@@H]3O)n2)ccc1C(F)(F)F` (relative stereo) [Example 113, 6-(((3S,4R)-3-hydroxypiperidin-4-yl)amino)-N-(6-(o-tolyl)-5-(trifluoromethyl)pyridin-2-yl)pyridine-2-sulfonamide Hydrochloride], under setting [2], the Emax came to 72% and the EC50 is 4220 nM.
Turning to `Cc1ccccc1-c1nc(NS(=O)(=O)c2cccc(N[C@@H]3CCC[C@H](C(=O)O)C3)n2)ccc1C(F)(F)F` (relative stereo) [Example 461, (1,3-cis)-3-((6-(N-(6-(o-tolyl)-5-(trifluoromethyl)pyridin-2-yl)sulfamoyl)pyridin-2-yl)amino)cyclohexanecarboxylic Acid], the EC50 under setting [1] was found to be 1950 nM. Further, the Emax (surface expression Amax) turned out to be 392%.
Take `Cc1ccccc1-c1nc(NS(=O)(=O)c2cccc(N[C@@H]3CCC[C@@H](C(=O)O)C3)n2)ccc1C(F)(F)F` (relative stereo) [Example 463, (1,3-trans)-3-((6-(N-(6-(o-tolyl)-5-(trifluoromethyl)pyridin-2-yl)sulfamoyl)pyridin-2-yl)amino)cyclohexanecarboxylic Acid]: the EC50 under setting [1] was found to be 2950 nM. Under “surface expression Amax”, the Emax came to 410%.
With `Cc1cccc(C)c1-c1nc(NS(=O)(=O)c2cccc(N)n2)cc(C(F)(F)F)c1Cl` [Example 8, 6-amino-N-(5-chloro-6-(2,6-dimethylphenyl)-4-(trifluoromethyl)pyridin-2-yl)pyridine-2-sulfonamide], under setting [2], the Emax was 608% and the EC50 came to 1360 nM.
For the compound `Cc1cccc(C)c1-c1nc(NS(=O)(=O)c2cccc(N)n2)ccc1F` [Example 9, 6-amino-N-(6-(2,6-dimethylphenyl)-5-fluoropyridin-2-yl)pyridine-2-sulfonamide], under setting [2], the Emax is 597% and the EC50 amounted to 1520 nM.
For `Cc1ccccc1-c1nc(NS(=O)(=O)c2cccc(N)n2)ccc1Cl` [Example 14, 6-Amino-N-(5-chloro-6-(o-tolyl)pyridin-2-yl)pyridine-2-sulfonamide], in that order: 523% and 1350 nM.
For the compound `Cc1ccccc1-c1nc(NS(=O)(=O)c2cccc(N)n2)ccc1C(F)(F)F` [Example 15, 6-amino-N-(6-(o-tolyl)-5-(trifluoromethyl)pyridin-2-yl)pyridine-2-sulfonamide], under setting [2], the Emax was 520% and the EC50 was determined as 2300 nM.
As to `Nc1cccc(S(=O)(=O)Nc2ccc(Cl)c(-c3cc(Cl)ccc3C3CC3)n2)n1` [Example 16, 6-amino-N-(5-chloro-6-(5-chloro-2-cyclopropylphenyl)pyridin-2-yl)pyridine-2-sulfonamide], under setting [2], the Emax is 519% and the EC50 was 1010 nM.
In the case of `Nc1cccc(S(=O)(=O)Nc2ccc(Cl)c(-c3ccccc3C3CC3)n2)n1` [Example 19, 6-amino-N-(5-chloro-6-(2-cyclopropylphenyl)pyridin-2-yl)pyridine-2-sulfonamide], under setting [2], the Emax was 501% and the EC50 worked out at 1300 nM.

The term EC50 denotes the midpoint of the concentration-response curve.
